Results: patent publication EP0470144B1, “BETA-HYDROXAMATE D-ASPARTIC ACID FOR TREATMENT OF VIRAL INFECTIONS AND TUMOURS” (priority 1989, dated 1990)

Columns and labels:
[1] = Tolerance to prolonged administration in mice (30 days); type: in vivo, souris; conditions: 2 g/kg once daily or 1 g/kg twice daily
Source text: La tolérance à l'administration prolongée du DAH a été évaluée sur un groupe de 10 souris traitées pendant 30 jours à une injection quotidienne de 2 g/kg, et un groupe de 10 souris recevant pendant la même durée deux injections de 1 g/kg par jour. La tolérance a été excellente, sans signe clinique de toxicité, sans décès et avec un poids corporel restant dans un intervalle de +/- 10 % par rapport à un groupe contrôle de même âge et de même poids initial.

FLV = experiment: Friend virus (FLV) replication in SC1 cell culture, reverse transcriptase activity in supernatants; type: cell-based; conditions: SC1 cells infected with FLV
Source text: Des cultures de cellules SC1 traitées avec du polybrène ont été infectées avec du FLV (5 x 10⁵ particules infectantes pour 2 x 10⁵ cellules). Les cellules ont ensuite été mises en culture avec diverses concentrations de DAH et l'activité de réplication du FLV a été mesurée par dosage de l'activité transcriptase inverse apparaissant dans les surnageants de milieux de culture aux 2ème, 4ème et 6ème jour après l'infection.

## N[C@@H](CC(=O)NO)C(=O)O [DAH, D-acide aspartique β-hydroxamate]
[1]
  poids corporel, intervalle (+/-) par rapport à un groupe contrôle: ≤ 10%
[1]; no clinical sign of toxicity, no death
  tolérance à l'administration prolongée: excellente
FLV; DAH 0,2 mM
  activité transcriptase inverse abaissée: ~70%
FLV; DAH 0,5 mM
  activité transcriptase inverse abaissée: 80%
FLV; DAH 1 mM
  activité transcriptase inverse abaissée: 90%
